Laboratory results as given in patent US20030225007A1, “Sulfonamide derivatives of 3-substituted imidazol[1,2-d]-1,2,4-thiadiazoles and 3-substituted-[1,2,4] thiadiazolo[4,5-a] benzimidazole as inhibitors of fibrin cross-linking and transglutaminases” (Apotex Inc., priority 2002, published 2003).
Where “and” joins values, the source holds several entries; their conditions need not be identical. Equal values may be shown once. Read-outs that look alike come from different tables or passages of the source.

Columns and labels:
Guinea pig liver TGase = biological target: T1, Guinea pig liver TGase (Cavia cutleri, UniProt P08587); assay: Enzyme selectivity: inactivation of tissue type transglutaminase; type: biochemical; conditions: 5-min incubation at 37° C. in the absence of substrate
T1 construct: Guinea pig liver TGase; from tissue; host or cells: guinea pig liver
T1 sequence (P08587 2-690): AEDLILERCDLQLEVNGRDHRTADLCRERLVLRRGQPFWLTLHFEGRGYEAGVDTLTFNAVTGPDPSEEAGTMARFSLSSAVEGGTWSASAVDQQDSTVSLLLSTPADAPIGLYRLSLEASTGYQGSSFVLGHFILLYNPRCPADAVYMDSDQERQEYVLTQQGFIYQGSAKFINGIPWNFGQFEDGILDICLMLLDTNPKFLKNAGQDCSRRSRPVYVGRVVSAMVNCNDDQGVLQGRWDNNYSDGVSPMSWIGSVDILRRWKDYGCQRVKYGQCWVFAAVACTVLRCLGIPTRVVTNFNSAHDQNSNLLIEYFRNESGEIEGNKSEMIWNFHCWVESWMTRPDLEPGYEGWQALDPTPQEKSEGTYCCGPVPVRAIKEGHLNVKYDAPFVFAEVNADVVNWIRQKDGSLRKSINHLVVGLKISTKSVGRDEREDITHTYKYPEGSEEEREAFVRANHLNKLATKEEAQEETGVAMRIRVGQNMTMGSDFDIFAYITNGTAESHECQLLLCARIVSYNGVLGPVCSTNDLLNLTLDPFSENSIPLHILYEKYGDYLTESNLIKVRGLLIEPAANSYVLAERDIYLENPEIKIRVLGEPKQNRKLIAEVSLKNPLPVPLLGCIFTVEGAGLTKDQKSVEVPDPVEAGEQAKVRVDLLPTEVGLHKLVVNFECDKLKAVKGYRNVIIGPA
Description: Enzyme selectivity . Inactivation of tissue type transglutaminase: Inhibitor solution in DMSO (5 μL) was added to 250 mM Tris-Cl pH 7.5 containing 40 mM CaCl2 and 1 mM EDTA in a final volume of 42 μL. Guinea pig liver TGase (3 μL, 2.5 mg/mL in 5 mM Tris-HCl pH 7.5, 2 mM EDTA) was added and the mixture was incubated for 5 min. at 37° C.
An assay mixture composed of 50 mM Tris-Cl, pH 8.0, 10 mM CaCl2, 1 mM EDTA, 0.1% poly(ethylene glycol) (app. MW=1000) and 20 μM monodansylcadaverine was prepared in a spectrofluorimetric cell in a final volume of 2952 μL. Dimethylcasein (8 μL, 1% in 50 mM sodium phosphate pH 7.5) was added and the mixture was incubated at 37° C. for a few minutes. To assay the residual enzyme activity, 40 μL of the solution containing the enzyme and the inhibitor was transferred to the assay mixture. The covalent incorporation of monodansylcadaverine into casein was monitored by an increase in fluorescence at λexc=360 nm and λem=500 nm, as previously described ((Curtis, C. G.; Lorand, L. Methods Enzymol. 1976, 45, 177-191). To determine uninhibited enzyme activity, DMSO was used in place of inhibitor solution in the above assay. IC50 values were determined by plotting the percent of remaining enzyme activity against logarithm of inhibitor concentration. IC50 is defined here as inhibitor concentration resulting in 50% enzyme inactivation after 5-min incubation of the enzyme with the inhibitor in the absence of the substrate. Second order rate constants for inactivation were determined using method described by Kitz and Wilson (Kitz, R.; Wilson, I. J.Biol.Chem. 1962,237, 3245).

[1] = biological target: T2, Factor XIIIa (activated FXIII) (Homo sapiens, UniProt P00488); assay: Inactivation of purified Factor XIIIa (monodansylcadaverine incorporation into dimethylcasein, fluorescence); type: biochemical
T2 construct: purchased Enzyme Research Laboratories, Ltd
T2 sequence (P00488 39-732 limits assumed): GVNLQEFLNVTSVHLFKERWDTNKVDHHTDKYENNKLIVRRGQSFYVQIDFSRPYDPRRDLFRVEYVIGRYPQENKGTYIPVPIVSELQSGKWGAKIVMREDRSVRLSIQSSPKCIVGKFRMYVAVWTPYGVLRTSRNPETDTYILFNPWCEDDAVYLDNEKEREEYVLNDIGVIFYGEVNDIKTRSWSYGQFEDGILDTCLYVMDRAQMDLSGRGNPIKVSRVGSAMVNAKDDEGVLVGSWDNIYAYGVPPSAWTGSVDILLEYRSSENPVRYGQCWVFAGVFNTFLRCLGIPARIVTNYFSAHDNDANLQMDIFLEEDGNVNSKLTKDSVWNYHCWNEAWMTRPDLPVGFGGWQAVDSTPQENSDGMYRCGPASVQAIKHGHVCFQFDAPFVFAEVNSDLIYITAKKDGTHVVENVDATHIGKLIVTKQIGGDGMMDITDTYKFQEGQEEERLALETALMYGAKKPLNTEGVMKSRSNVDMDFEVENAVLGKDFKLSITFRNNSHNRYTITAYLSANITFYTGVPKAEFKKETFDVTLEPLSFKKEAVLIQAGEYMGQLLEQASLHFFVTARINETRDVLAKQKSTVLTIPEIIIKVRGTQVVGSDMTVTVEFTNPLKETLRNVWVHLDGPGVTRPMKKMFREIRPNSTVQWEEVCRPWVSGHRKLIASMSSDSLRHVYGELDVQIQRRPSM
Description: FXIII (0.5 mg/mL, Enzyme Research Laboratories, Ltd.) in 50 mM Tris-HCl pH 7.5 containing 100 mM NaCl, 40 mM CaCl2, 1 mM EDTA and 0.1% poly(ethylene glycol) (app. MW=8000) was activated by incubation with 10 NIH units/mL of human thrombin (Calbiochem) at 37° C. for 20 min. Thrombin was quenched with 20 NIH units/mL of hirudin from Leech (Sigma).
Inhibitor solution in DMSO (14 μL) was added to 120 μL of 250 mM Tris-Cl pH 7.5 containing 40 mM CaCl2 and 1 mM EDTA and the solution was incubated at 37° C. for two minutes. Activated FXIII (5 μL, 0.5 mg/mL) was added and the mixture was incubated at 37° C. for 5 min.
An assay mixture composed of 50 mM Tris-Cl pH 8.0, 10 mM CaCl2, 1 mM EDTA, 0.1% poly(ethylene glycol) (app. MW=1000) and 20 μM monodansylcadaverine was prepared in a spectrofluorometric cell in a final volume of 2880 μL. Dimethylcasein (8 μL, 1% in 50 mM sodium phosphate pH 7.5) was added and the solution was incubated at 37° C. for a few minutes. To assay the residual enzyme activity, 120 μL of the solution containing the enzyme and the inhibitor was transferred to the assay mixture. The covalent incorporation of monodansylcadaverine into casein was monitored by an increase in fluorescence at λexc=360 nm and λem=500 nm as previously described (Curtis, C. G.; Lorand, L. Methods Enzymol. 1976, 45, 177-191). To determine uninhibited enzyme activity, DMSO was used in place of inhibitor solution in the above assay. IC50 were determined by plotting the percent of remaining enzyme activity against logarithm of inhibitor concentration. IC50 is defined here as an inhibitor concentration resulting in 50% enzyme inactivation after 5-min incubation of the enzyme with the inhibitor in the absence of the substrate. Second order rate constants for inactivation were determined using method described by Kitz and Wilson (Kitz, R.; Wilson, I. J. Biol. Chem. 1962, 237, 3245).

[2] = biological target: T3, endogenous Factor XIII in plasma (Plasma FXIIIa) (Homo sapiens, UniProt P00488); assay: Inactivation of endogenous Factor XIII in plasma; type: biochemical; conditions: citrated plasma, thrombin-activated, 5 min at 37° C.
T3 construct: from tissue; host or cells: citrated plasma (desensitized by heating)
T3 sequence (P00488 39-732 limits assumed): T2 sequence (P00488 39-732 limits assumed)
Description: Citrated plasma (0.235 mL) was “desensitized” by heating with ethylene glycol monomethyl ether (0.235 mL, 20% solution in water) in a glass test tube at 56° C. for 4 min., as described by Lorand (Lorand, L.; Lockridge, O. M.; Campbell, L. K.; Myhrman, R.; Bruner-Lorand, J. Anal.Biochem. 1971, 44, 221-231). After cooling to 37° C., calcium chloride (20 μL, 0.4 M in 50 mM Tris-HCl pH 7.5) and inhibitor solution in 50% glycerol (59 μL) were added. Bovine thrombin (30 NIH units in 118 μL of 50 mM Tris-HCl pH 7.5 containing 20 mM CaCl2) was added and the mixture was incubated at 37° C. for 5 min.
An assay mixture composed of 0.1 M sodium borate, pH 9.0, 0.3% ethylene glycol monomethyl ether, 32 μM monodansylcadaverine, 10 mM CaCl2 and 0.08% dimethyl casein in a final volume of 1.263 mL was prepared in a spectrofluorometric cell and incubated at 37° C. for a few minutes. To assay the residual enzyme activity, 567 μL of the plasma solution was transferred to the assay mixture. The covalent incorporation of monodansylcadaverine into casein was monitored by an increase in fluorescence at λex=360 nm and λem=500 nm, as previously described (Curtis, C. G.; Lorand, L. Methods Enzymol. 1976, 45, 177-191). To determine uninhibited enzyme activity, inhibitor solution was replaced by 50% glycerol. IC50 values (inhibitor concentration resulting in 50% enzyme inactivation) were determined by plotting the percent of remaining enzyme activity against logarithm of inhibitor concentration.

[3] = values without asterisk, purified FXIIIa, 5-min incubation, read-out: FXIIIa IC50 determined by method in Example 16
[4] = purified activated FXIII, 50% enzyme inactivation after 5-min incubation with inhibitor at 37° C. in the absence of substrate, read-out: FXIIIa (IC50 in μM)
[5] = TGAse IC50, Guinea pig liver TGase

`O=C(N1CCc2ccc(S(=O)(=O)NCCCCCCNc3nsc4nccn34)cc2C1)C(F)(F)F` showed an IC50 (Guinea pig liver TGase; read-out: TGAse IC50, Guinea pig liver TGase) of 17 µM and an IC50 [1, 3] of 11 µM.

Work on `CN(C)c1cccc2c(S(=O)(=O)NCCCCCNc3nsc4nccn34)cccc12` [1 / 5-Me2N-1-naphthyl, 5-(Dimethylamino)-N-[5-(imidazo[1,2-d][1,2,4]thiadiazol-3-ylamino)pentyl]naphthalene-1-sulfonamide] yielded an IC50 [2] of 7.1 µM.

In the case of `CS(=O)(=O)NCCCCCCNc1nsc2nccn12` [2 / CH3, N-[6-(Imidazo[1,2-d][1,2,4]thiadiazol-3-ylamino)hexyl]methanesulfonamide], the IC50 [2] is reported as 38 µM.

`O=C(O)CCN(CCCCCCNc1nsc2nccn12)S(=O)(=O)c1ccc(F)cc1F` [2 / OH / 2-F-4-F-Ph, N-[(2,4-difluorophenyl)sulfonyl]-N-[6-(imidazo[1,2-d][1,2,4]thiadiazol-3-ylamino)hexyl]-β-alanine] gave a melting point of 97 to 100 °C and an IC50 [1, 4] of 5.2 µM.

In the case of `O=S(=O)(NCCCCCCNc1nsc2nccn12)c1ccccc1C(F)(F)F` [2-CF3-Ph / H, N-[6-(imidazo[1,2-d][1,2,4]thiadiazol-3-ylamino)hexyl]-2-trifluoromethylbenzenesulfonamide], the IC50 (Guinea pig liver TGase; [5]) is reported as 7.5 µM and 3.8 µM, the kinact/KI ([1]; purified Factor XIIIa, method of Kitz and Wilson, read-out: Second order rate constant for inactivation) is reported as 12000 M⁻¹ s⁻¹ and the IC50 ([1]; values marked *, read-out: FXIIIa IC50, *values calculated from second order rate constant for inactivation) is reported as 0.26 µM and 0.18 µM.

`Cc1c(Cl)cccc1S(=O)(=O)NCCCCCCNc1nsc2nccn12` [2-Me-3-Cl-Ph, 3-chloro-N-[6-(imidazo[1,2-d][1,2,4]thiadiazol-3-ylamino)hexyl]-2-methylbenzenesulfonamide] showed a melting point of 151 to 153 °C and an IC50 [1, 4] of 1.3 µM.

Work on `Cc1ccc(F)cc1S(=O)(=O)NCCCCCCNc1nsc2nccn12` [2-Me-5-F-Ph, 5-fluoro-N-[6-(imidazo[1,2-d][1,2,4]thiadiazol-3-ylamino)hexyl]-2-methylbenzenesulfonamide] yielded a melting point of 140 to 142 °C and an IC50 [1, 4] of 10 µM.

With `Nc1ccccc1S(=O)(=O)NCCCCCCNc1nsc2nccn12` [2-NH2-Ph, 2-amino-N-[6-(imidazo[1,2-d][1,2,4]thiadiazol-3-ylamino)hexyl]benzenesulfonamide] the melting point was 138 to 139 °C and the IC50 [1, 4] was 2 µM.

Work on `CN(CCCCCCNS(=O)(=O)c1ccccc1[N+](=O)[O-])c1nsc2nccn12` [2-NO2-Ph / CH3, N-{6-[imidazo[1,2-d][1,2,4]thiadiazol-3-yl(methyl)amino]hexyl}-2-nitrobenzenesulfonamide] yielded an IC50 (Guinea pig liver TGase; [5]) of 6.2 µM.

`O=[N+]([O-])c1ccccc1S(=O)(=O)NCCCCCCNc1nsc2nccn12` [H / H / 2-NO2-Ph, N-[6-(imidazo[1,2-d][1,2,4]thiadiazol-3-ylamino)hexyl]-2-nitrobenzenesulfonamide] gave a melting point of 113.7 to 114.6 °C.

For “N-imidazo[1,2-d][1,2,4]thiadiazol-3-yl-N-(6-{[(2-nitrophenyl)sulfonyl]amino}hexyl)glycinamide [H / CH2CONH2 / 2-NO2-Ph]”, the IC50 (Guinea pig liver TGase; Guinea pig liver TGase, read-out: TGAse IC50) was 32 µM, the “Second order rate constant for inactivation” value ([1]; purified Factor XIIIa, method of Kitz and Wilson) was 6700 M⁻¹ s⁻¹ and the IC50 [1, 4] was 0.42 µM. It also gave an IC50 [1, 3] of 0.42 µM.
